In patent US20240208961A1, “EIF4E INHIBITORS AND USES THEREOF” (PIC Therapeutics, Inc., priority 2022, published 2024):
“And” between values parts separate entries of the source, which are not always exact repeats. Equal values may be shown once. Read-outs that look alike come from different tables or passages of the source.

Columns and labels:
MM.1S = assay: Cell viability assay, suspension cell line, 5 day Alamar Blue (Example 8): MM.1S; assay type: cell-based; conditions: Homo sapiens, MM1.S, 120 h, Multiple Myeloma (Steroid Sensitive) Cancer Cell
[1] = Pharmacokinetic studies of certain compounds in female Balb/c mice (Example 5); assay type: in vivo
Description: Pharmacokinetic studies were performed using Balb/c mice, 15-20 g, 6-9 weeks, female, N=9, purchased from Jihui Laboratory Animal Co. LTD. For compound I-29, Balb/c mice, 19-21 g, 9-11 weeks, female, N=9, were used. The mice were fasted overnight and fed at 4 h post dosing.
Animals were dosed via oral gavage (PO) or tail vein injection (IV) with compound. Sampling occurred at 0.083, 0.25, 0.5, 1, 2, 4, 8, and 24 h post dose (8 time points). The animals were restrained manually at the designated time points. Approx. […] of blood was taken from the animals via facial vein for semi-serial bleeding into tubes with K2EDTA. Blood samples were put on ice and centrifuged at 4° C. (2000 g, 5 min) to obtain plasma within 15 min after sample collection. Plasma samples were stored in dry ice temporarily and at approximately −70° C. until analysis.
For oral gavage, the compound was dosed as a suspension in 1% sodium carboxymethyl cellulose (CMC) and 0.2% Tween 80 in water. For 23.8 mg/kg and 30 mg/kg doses, 3 mg/mL was used; for 50 mg/kg doses, 5 mg/mL was used; and for 100 mg/kg doses, 10 mg/mL was used.
For IV administration, the compound was dosed as a solution in 5% DMSO, 5% Solutol HS15 and 90% saline. For 1 mg/kg and 1.48 mg/kg doses, 0.2 mg/mL was used.
Plasma samples were analyzed using LC-MS using a calibration curve of known concentrations.
The results of these studies are summarized in Tables 11-21 below and in FIGS. 2-8. […] BQL=below quantifiable limit for compound in female Balb/c mouse plasma samples. NA=not available. PK parameters were estimated by non-compartmental model using WinNonlin 8.2. If the adjusted rsq (linear regression coefficient of the concentration value on the terminal phase) was less than 0.9, T1/2 might not have been accurately estimated. F value was determined by the following equation: • If AUClast/AUCINF>80%:
F=(AUCINF-EX×DOSEIV)/(AUCINF-IV×DOSEEX)[…] • If AUClast/AUCINF<80% or AUCINF not available:
F=(AUClast-EX×DOSEIV)/(AUClast-IV×DOSEEX)*1000

LoVo = assay: Cell viability assay, adherent cell line, 5 day Alamar Blue (Example 8): LoVo; assay type: cell-based; conditions: Homo sapiens, 120 h, Colorectal Cancer Cell Viability
[2] = I-3 IV 1 mg/kg, 24 hr, BQL = below quantifiable limit of 1.00 ng/mL

Structure (SMILES): CC(C)Cc1sc(Nc2ncc(-c3cccs3)cc2C(=O)O)nc1C1CCCCC1 [Compound I-3]
- IC50 (MM.1S): 1 to 8 µM
- Plasma concentration Individual ([1]; I-3 IV 1 mg/kg, 0.083 hr, 1 mg/kg): 1790 ng/mL and 2660 ng/mL
- Plasma concentration Individual ([1]; I-3 IV 1 mg/kg, 0.25 hr, 1 mg/kg): 633 ng/mL and 539 ng/mL
- Plasma concentration Individual ([1]; I-3 IV 1 mg/kg, 0.5 hr, 1 mg/kg): 292 ng/mL and 352 ng/mL
- Plasma concentration Individual ([1]; I-3 IV 1 mg/kg, 1 hr, 1 mg/kg): 101 ng/mL and 116 ng/mL
- Plasma concentration Individual ([1]; I-3 IV 1 mg/kg, 2 hr, 1 mg/kg): 35.6 ng/mL and 28.1 ng/mL
- Plasma concentration Individual ([1]; I-3 IV 1 mg/kg, 4 hr, 1 mg/kg): 7.05 ng/mL and 7.52 ng/mL and 21.3 ng/mL
- Plasma concentration Individual ([1]; I-3 IV 1 mg/kg, 8 hr, BQL = below quantifiable limit of 1.00 ng/mL, 1 mg/kg): BQL
- Plasma concentration Individual [1, 2]: BQL
- Plasma concentration Mean [1, 2]: BQL
- F ([1]; I-3 PO 30 mg/kg vs IV 1 mg/kg): 36.0%
- Plasma concentration Individual ([1]; I-3 PO 30 mg/kg, 0.083 hr, 30 mg/kg): 69.9 ng/mL and 44.9 ng/mL
- Plasma concentration Individual ([1]; I-3 PO 30 mg/kg, 0.25 hr, 30 mg/kg): 420 ng/mL and 461 ng/mL
- Plasma concentration Individual ([1]; I-3 PO 30 mg/kg, 0.5 hr, 30 mg/kg): 1920 ng/mL and 1840 ng/mL
- Plasma concentration Individual ([1]; I-3 PO 30 mg/kg, 1 hr, 30 mg/kg): 1520 ng/mL and 1760 ng/mL
- Plasma concentration Individual ([1]; I-3 PO 30 mg/kg, 2 hr, 30 mg/kg): 1530 ng/mL and 1800 ng/mL
- Plasma concentration Individual ([1]; I-3 PO 30 mg/kg, 4 hr, 30 mg/kg): 896 ng/mL and 860 ng/mL
- Plasma concentration Individual ([1]; I-3 PO 30 mg/kg, 8 hr, 30 mg/kg): 124 ng/mL and 186 ng/mL
- Plasma concentration Individual ([1]; I-3 PO 30 mg/kg, 24 hr, 30 mg/kg): 10.6 ng/mL and 4.10 ng/mL and 3.10 ng/mL
- concentration at 0.083 hr ([1]; female, Balb/c, mouse, plasma, iv, 1 mg/kg, I-3 IV 1 mg/kg, 0.083 hr, read-out: Plasma concentration Individual): 1910 ng/mL
- concentration at 0.083 hr ([1]; female, Balb/c, mouse, plasma, iv, 1 mg/kg, I-3 IV 1 mg/kg, 0.083 hr, read-out: Plasma concentration Mean): 2120 ng/mL
- concentration at 0.25 hr ([1]; female, Balb/c, mouse, plasma, iv, 1 mg/kg, I-3 IV 1 mg/kg, 0.25 hr, read-out: Plasma concentration Individual): 511 ng/mL
- concentration at 0.25 hr ([1]; female, Balb/c, mouse, plasma, iv, 1 mg/kg, I-3 IV 1 mg/kg, 0.25 hr, read-out: Plasma concentration Mean): 561 ng/mL
- concentration at 0.5 h ([1]; female, Balb/c, mouse, plasma, iv, 1 mg/kg, I-3 IV 1 mg/kg, 0.5 hr, read-out: Plasma concentration Individual): 246 ng/mL
- concentration at 0.5 h ([1]; female, Balb/c, mouse, plasma, iv, 1 mg/kg, I-3 IV 1 mg/kg, 0.5 hr, read-out: Plasma concentration Mean): 297 ng/mL
- concentration at 1 h ([1]; female, Balb/c, mouse, plasma, iv, 1 mg/kg, I-3 IV 1 mg/kg, 1 hr, read-out: Plasma concentration Individual): 111 ng/mL
- concentration at 1 h ([1]; female, Balb/c, mouse, plasma, iv, 1 mg/kg, I-3 IV 1 mg/kg, 1 hr, read-out: Plasma concentration Mean): 109 ng/mL
- concentration at 2 h ([1]; female, Balb/c, mouse, plasma, iv, 1 mg/kg, I-3 IV 1 mg/kg, 2 hr, read-out: Plasma concentration Individual): 28.7 ng/mL
- concentration at 2 h ([1]; female, Balb/c, mouse, plasma, iv, 1 mg/kg, I-3 IV 1 mg/kg, 2 hr, read-out: Plasma concentration Mean): 30.8 ng/mL
- concentration at 4 h ([1]; female, Balb/c, mouse, plasma, iv, 1 mg/kg, I-3 IV 1 mg/kg, 4 hr, read-out: Plasma concentration Mean): 12 ng/mL
- concentration at 8 h ([1]; female, Balb/c, mouse, plasma, iv, 1 mg/kg, I-3 IV 1 mg/kg, 8 hr, BQL = below quantifiable limit of 1.00 ng/mL, read-out: Plasma concentration Individual): 1.62 ng/mL
- concentration at 8 h ([1]; female, Balb/c, mouse, plasma, iv, 1 mg/kg, I-3 IV 1 mg/kg, 8 hr, BQL = below quantifiable limit of 1.00 ng/mL, read-out: Plasma concentration Mean): 1.62 ng/mL
- concentration at 0.083 hr ([1]; female, Balb/c, mouse, plasma, po, 30 mg/kg, I-3 PO 30 mg/kg, 0.083 hr, read-out: Plasma concentration Individual): 56.7 ng/mL
- concentration at 0.083 hr ([1]; female, Balb/c, mouse, plasma, po, 30 mg/kg, I-3 PO 30 mg/kg, 0.083 hr, read-out: Plasma concentration Mean): 57.2 ng/mL
- concentration at 0.25 hr ([1]; female, Balb/c, mouse, plasma, po, 30 mg/kg, I-3 PO 30 mg/kg, 0.25 hr, read-out: Plasma concentration Individual): 453 ng/mL
- concentration at 0.25 hr ([1]; female, Balb/c, mouse, plasma, po, 30 mg/kg, I-3 PO 30 mg/kg, 0.25 hr, read-out: Plasma concentration Mean): 445 ng/mL
- concentration at 0.5 hr ([1]; female, Balb/c, mouse, plasma, po, 30 mg/kg, I-3 PO 30 mg/kg, 0.5 hr, read-out: Plasma concentration Individual): 1950 ng/mL
- concentration at 0.5 hr ([1]; female, Balb/c, mouse, plasma, po, 30 mg/kg, I-3 PO 30 mg/kg, 0.5 hr, read-out: Plasma concentration Mean): 1900 ng/mL
- concentration at 1 hr ([1]; female, Balb/c, mouse, plasma, po, 30 mg/kg, I-3 PO 30 mg/kg, 1 hr, read-out: Plasma concentration Individual): 1490 ng/mL
- concentration at 1 hr ([1]; female, Balb/c, mouse, plasma, po, 30 mg/kg, I-3 PO 30 mg/kg, 1 hr, read-out: Plasma concentration Mean): 1590 ng/mL
- concentration at 2 hr ([1]; female, Balb/c, mouse, plasma, po, 30 mg/kg, I-3 PO 30 mg/kg, 2 hr, read-out: Plasma concentration Individual): 1750 ng/mL
- concentration at 2 hr ([1]; female, Balb/c, mouse, plasma, po, 30 mg/kg, I-3 PO 30 mg/kg, 2 hr, read-out: Plasma concentration Mean): 1690 ng/mL
- concentration at 4 hr ([1]; female, Balb/c, mouse, plasma, po, 30 mg/kg, I-3 PO 30 mg/kg, 4 hr, read-out: Plasma concentration Individual): 991 ng/mL
- concentration at 4 hr ([1]; female, Balb/c, mouse, plasma, po, 30 mg/kg, I-3 PO 30 mg/kg, 4 hr, read-out: Plasma concentration Mean): 916 ng/mL
- concentration at 8 hr ([1]; female, Balb/c, mouse, plasma, po, 30 mg/kg, I-3 PO 30 mg/kg, 8 hr, read-out: Plasma concentration Individual): 182 ng/mL
- concentration at 8 hr ([1]; female, Balb/c, mouse, plasma, po, 30 mg/kg, I-3 PO 30 mg/kg, 8 hr, read-out: Plasma concentration Mean): 164 ng/mL
- concentration at 24 hr ([1]; female, Balb/c, mouse, plasma, po, 30 mg/kg, I-3 PO 30 mg/kg, 24 hr, read-out: Plasma concentration Mean): 5.93 ng/mL
- AUC(0-inf) ([1]; mouse, plasma, I-3 IV 1 mg/kg): 834 ng·h/mL
- AUC(0-t) ([1]; mouse, plasma, I-3 IV 1 mg/kg): 831 ng·h/mL
- C0 ([1]; mouse, plasma, I-3 IV 1 mg/kg): 4100 ng/mL
- MRT inf ([1]; mouse, plasma, I-3 IV 1 mg/kg): 0.58 h
- MRT last ([1]; mouse, plasma, I-3 IV 1 mg/kg): 0.542 h
- clearance ([1]; mouse, plasma, I-3 IV 1 mg/kg): 20 mL/min/kg
- half-life ([1]; mouse, plasma, I-3 IV 1 mg/kg): 1.41 h
- Vd ([1]; mouse, plasma, I-3 IV 1 mg/kg, read-out: Vss): 0.695 L/kg
- AUC(0-inf) ([1]; mouse, plasma, I-3 PO 30 mg/kg): 9000 ng·h/mL
- AUC(0-t) ([1]; mouse, plasma, I-3 PO 30 mg/kg): 8980 ng·h/mL
- Cmax ([1]; mouse, plasma, I-3 PO 30 mg/kg): 1900 ng/mL
- MRT inf ([1]; mouse, plasma, I-3 PO 30 mg/kg): 3.62 h
- MRT last ([1]; mouse, plasma, I-3 PO 30 mg/kg): 3.55 h
- Tmax ([1]; mouse, plasma, I-3 PO 30 mg/kg): 0.5 h
- half-life ([1]; mouse, plasma, I-3 PO 30 mg/kg): 2.77 h
- IC50 (LoVo): 1 to 8 µM
